# US4205171A, “Aminomethanobenzazocines and nitromethanobenzazocines” (Sterling Drug Inc., priority 1978, dated 1980)
# Where a name gives a salt, the structure may show the parent alone. Read-outs that look alike come from different tables or passages of the source.
# Key:
# [1] = tested on: acetylcholine-induced writhing; assay: Anti-acetylcholine writhing test (analgesia); format: in vivo, mice; conditions: for ED50: Mus musculus, 20 min, mice; for Oral:Parenteral Potency Ratio: peroral ED50 / subcutaneous ED50, anti-acetylcholine test
# Procedure: In this test the ability of test compounds to prevent acetylcholine-induced writhing in mice is determined. The following is an adaptation of the method of Collier and co-workers (Brit. J. Pharmacol. Chemother., 32, 295(1968)) by Anne K. Pierson. Anti-acetylcholine Writhing Test
# This response has also been called writhing. Animals are pretreated with test compounds (20 minutes for both subcutaneous and oral routes) and observed for two minutes immediately following the administration of acetylcholine. Mice not responding during the two-minute observation period are scored protected while those responding one or more times are scored not protected. Test compounds are screened at doses of 75 and 25 milligrams per kilogram subcutaneously or 150 and 50 mlligrams per kilogram orally. […] ED50 values for active compounds are estimated by probit analysis of quantal scores for 4 or more dosage levels using 15 animals per dose. Vehicle-pretreated control animals are tested concurrently with each run of 15 experimental animals.
# [2] = Intravenous administration in the dog (unconsciousness, heart rate, blood pressure); format: in vivo
# [3] = Irritation at the injection site; format: in vivo; conditions: rabbits
# Text: A still further important difference is the comparative irritation at the injection site of pentazocine and the compound of Example 1B. The threshold irritation concentration of the latter in rabbits was 2% and of pentazocine, 0.5%.
# [4] = tested on: phenazocine (agonist effect in rat tail-flick); assay: Tail-flick antagonist test against phenazocine; conditions: for ED50: Rattus norvegicus, sc, 10 min, read-out: Tail-flick Antagonist AD50
# [5] = tested on: tail-flick response to thermal stimulus; assay: Tail-flick agonist test; format: in vivo; conditions: rats, subcutaneous; for Tail-flick Agonist ED50: 30 minutes after injection
# Procedure: Rats normally respond to a thermal stimulus applied to the tail by flicking their tails out from under the heat source. The intensity of the stimulus utilized is one which produces control response-times (CRT) of 2-4 seconds. Experimental response-times (ERT) are determined 30 minutes after subcutaneous injections. […] Therefore, the maximum possible increase (MPI) in response-time for any given animal is 20 minus the CRT. The average % effect, or % of the maximum possible increase (%MPI) obtained after any given test compound treatment is calculated by the formula [formula] […] Exptl.
# [6] = Tests for analgesia, comparison with cyclazocine and pentazocine; format: in vivo; conditions: both subcutaneously and orally
# Text: The compound of Example 1B having in the free base form the structural formula [drawing 14] is the preferred species of this invention and the biological properties thereof have been carefully compared with those of pentazocine and cyclazocine.
# [7] = po, peroral, read-out: Peroral ED50, anti-acetylcholine test
# [8] = sc, subcutaneous, 20 minutes pretreatment, read-out: ED50, anti-acetylcholine writhing test
smiles,measurement,setting,value
"C[C@H]1[C@H]2Cc3ccc(N)cc3[C@]1(C)CCN2CC1CC1 (relative stereo) [Example 1B, 8-amino-3-(cyclopropylmethyl)-1,2,3,4,5,6-hexahydro-cis-6,11-dimethyl-2,6-methano-3-benzazocine dihydrochloride]",ED50,[1]; [7],3.2 mg/kg
same,ED50,[1]; [8],0.8 mg/kg
same,Oral:Parenteral Potency Ratio,[1],4
same,Heart rate and blood pressure,[2],without compromising heart rate or blood pressure
same,Salivation and tremors,[2],Salivation and tremors were observed
same,Unconsciousness,[2],produced unconsciousness equivalent to a light plane of anesthesia
same,Threshold irritation concentration,[3],2%
same,ED50,[4],2.7 mg/kg
"CCCNc1ccc2c(c1)[C@]1(C)CCN(CC3CC3)[C@H](C2)[C@@H]1C (relative stereo) [Example 10B, 3-(cyclopropylmethyl)-1,2,3,4,5,6-hexahydro-cis-6,11-dimethyl-8-(propylamino)-2,6-methano-3-benzazocine]",ED50,[1]; [8],1.2 mg/kg
same,Tail-flick Antagonist % Antagonism,"[4]; rats, subcutaneous, against phenazocine, at 5 mg./kg., different sample",32%
same,Tail-flick Antagonist % Antagonism,"[4]; rats, subcutaneous, against phenazocine, at 40 mg./kg.",31%
"CNc1ccc2c(c1)[C@]1(C)CCN(CC3CC3)[C@H](C2)[C@@H]1C (relative stereo) [Example 3B, 3-(cyclopropylmethyl)-1,2,3,4,5,6-hexahydro-cis-6,11-dimethyl-8-(methylamino)-2,6-methano-3-benzazocine dihydrochloride ethanolate hydrate]",ED50,[1]; [8],0.44 mg/kg
same,Tail-flick Agonist % MPI,[5]; at 120 mg./kg.,35%
same,ED50,[4],1.3 mg/kg
"CCNc1ccc2c(c1)[C@]1(C)CCN(CC3CC3)[C@H](C2)[C@@H]1C (relative stereo) [Example 9B, 3-(cyclopropylmethyl)-8-(ethylamino)-1,2,3,4,5,6-hexahydro-cis-6,11-dimethyl-2,6-methano-3-benzazocine]",ED50,[1]; [8],1.3 mg/kg
same,Tail-flick Agonist % MPI,[5]; at 60 mg./kg.,25%
same,Tail-flick Agonist % MPI,"[5]; at 120 mg./kg., different sample",21%
same,ED50,[4],10 mg/kg
same,Tail-flick Antagonist % Antagonism,"[4]; rats, subcutaneous, against phenazocine, at 80 mg./kg., different sample",19%
"C[C@H]1[C@H]2Cc3ccc(N)cc3[C@]1(C)CCN2C (relative stereo) [Formula G, α-2'-amino-2,5,9-trimethyl-6,7-benzomorphan, reference compound]",ED50,[1]; [8],7.5 mg/kg
same,Tail-flick Agonist ED50,[5],Inactive at 120
same,Narcotic antagonist activity,"[4]; rat, in vivo",not a narcotic antagonist
same,Tail-flick Antagonist AD50,"[4]; rats, subcutaneous, against phenazocine",Inactive at 80
"CC(C)CN1CC[C@@]2(C)c3cc(N)ccc3C[C@@H]1[C@@H]2C (relative stereo) [Example 5C, 8-amino-1,2,3,4,5,6-hexahydro-3-isobutyl-cis-6,11-dimethyl-2,6-methano-3-benzazocine dihydrochloride]",ED50,[1]; [8],1.5 mg/kg
same,ED50,[4],9.4 mg/kg
"C[C@H]1[C@H]2Cc3ccc(O)cc3[C@]1(C)CCN2CC1CC1 (relative stereo) [cyclazocine, reference compound]",ED50,[1]; [7],5.3 mg/kg
same,ED50,[1]; [8],0.15 mg/kg
same,Oral:Parenteral Potency Ratio,[1],35
same,Tail-flick Agonist ED50,[5],Inactive at 120
same,Heart rate and blood pressure,[2],increases in heart rate and blood pressure
same,Unconsciousness,[2],produced unconsciousness
same,ED50,[4],0.028 mg/kg
"CCCCNc1ccc2c(c1)[C@]1(C)CCN(CC3CC3)[C@H](C2)[C@@H]1C (relative stereo) [Example 11B, 8-(butylamino)-3-(cyclopropylmethyl)-1,2,3,4,5,6-hexahydro-cis-6,11-dimethyl-2,6-methano-3-benzazocine]",ED50,[1]; [8],1 mg/kg
"C[C@H]1[C@H]2Cc3ccc(N(C)C)cc3[C@]1(C)CCN2CC1CC1 (relative stereo) [Example 4F, 3-cyclopropylmethyl-8-dimethylamino-cis-6,11-dimethyl-1,2,3,4,5,6-hexahydro-2,6-methano-3-benzazocine dihydrochloride]",ED50,[1]; [8],0.79 mg/kg
same,Tail-flick Agonist % MPI,[5]; at 60 mg./kg.,43%
same,Tail-flick Antagonist % Antagonism,"[4]; rats, subcutaneous, against phenazocine, at 10 mg./kg.",30%
same,Tail-flick Antagonist % Antagonism,"[4]; rats, subcutaneous, against phenazocine, at 80 mg./kg.",32%
"C[C@H]1[C@H]2Cc3ccc(NCC4CC4)cc3[C@]1(C)CCN2CC1CC1 (relative stereo) [Example 2E, 3-(cyclopropylmethyl)-8-(cyclopropylmethylamino)-1,2,3,4,5,6-hexahydro-cis-6,11-dimethyl-2,6-methano-3-benzazocine hydrochloride]",ED50,[1]; [8],0.7 mg/kg
same,ED50,[4],8 mg/kg
"C=CCN1CC[C@@]2(C)c3cc(N)ccc3C[C@@H]1[C@@H]2C (relative stereo) [Example 8C, 8-amino-1,2,3,4,5,6-hexahydro-cis-6,11-dimethyl-3-(2-propenyl)-2,6-methano-3-benzazocine dihydrochloride]",ED50,[1]; [8],2.5 mg/kg
same,ED50,[4],1.5 mg/kg
"C[C@H]1[C@H]2Cc3ccc(NCc4ccccc4)cc3[C@]1(C)CCN2CC1CC1 (relative stereo) [Example 7, 3-(cyclopropylmethyl)-1,2,3,4,5,6-hexahydro-cis-6,11-dimethyl-8-benzylamino-2,6-methano-3-benzazocine dihydrochloride]",ED50,[1]; [8],1.6 mg/kg
same,ED50,[4],1 mg/kg
"CC[C@H]1[C@H]2Cc3ccc(N)cc3[C@]1(CC)CCN2CC1CC1 (relative stereo) [Example 12H, 8-amino-3-(cyclopropylmethyl)-cis-6,11-diethyl-1,2,3,4,5,6-hexahydro-2,6-methano-3-benzazocine dihydrochloride]",ED50,[1]; [8],1.3 mg/kg
same,ED50,[4],3.8 mg/kg
"CCCN1CC[C@@]2(C)c3cc(N)ccc3C[C@@H]1[C@@H]2C (relative stereo) [Example 6C, 8-amino-cis-6,11-dimethyl-1,2,3,4,5,6-hexahydro-3-propyl-2,6-methano-3-benzazocine dihydrochloride sesquihydrate]",ED50,[1]; [8],5.6 mg/kg
same,Tail-flick Agonist ED50,[5],Inactive at 60
same,ED50,[4],2 mg/kg
"CC(C)=CCN1CCC2(C)c3cc(O)ccc3CC1C2C (stereo not drawn) [pentazocine, reference compound]",ED50,[1]; [7],51 mg/kg
same,ED50,[1]; [8],2.2 mg/kg
same,Oral:Parenteral Potency Ratio,[1],23
same,Tail-flick Agonist ED50,[5],Inactive at 120
same,Unconsciousness,[2],without unconsciousness
same,Convulsions,[2]; single dose tested,induced convulsions
same,Threshold irritation concentration,[3],0.5%
same,Potency relative to the compound of Example 1B in the tests for analgesia,[6],significantly less potent
same,ED50,[4],6.3 mg/kg
